Results reported in article PMC10133194 (Chemistry (Weinheim an der Bergstrasse, Germany), 2023).
Where two headings read alike, the source gives them in different places.

Key:
human CRC = details: cited from earlier work
[1] = system: human colon carcinoma cells; details: panel of cell lines; cited from earlier work
[2] = biological target: T1, EPHA2 kinase domain (D596-G900) (Homo sapiens, UniProt P29317); details: read-out: KD MST, reported previously ref 18; cited from earlier work
T1 sequence (P29317 596-900): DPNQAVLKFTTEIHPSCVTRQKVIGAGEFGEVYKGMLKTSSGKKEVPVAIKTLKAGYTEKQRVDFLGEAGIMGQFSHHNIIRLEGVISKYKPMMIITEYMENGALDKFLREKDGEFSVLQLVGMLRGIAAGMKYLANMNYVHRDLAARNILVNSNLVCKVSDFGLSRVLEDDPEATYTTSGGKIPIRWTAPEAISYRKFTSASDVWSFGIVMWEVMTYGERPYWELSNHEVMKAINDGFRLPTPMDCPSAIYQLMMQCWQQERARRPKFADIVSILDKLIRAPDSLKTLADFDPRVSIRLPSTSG

[3] = biological target: T1, EPHA2 kinase domain (D596-G900); experiment: Microscale thermophoresis; format: binding; details: read-out: KD MST, 25 °C, 5% DMSO, duplicates

SMILES: Cc1ccc(C(=O)Nc2cccc(C(F)(F)F)c2)cc1Nc1nc(-c2cccnc2)nc2nn(C)cc12 [NVPiso]
- effect on growth of human CRC in mice (human CRC): inhibited the growth of human CRC in mice
- effect on proliferation of human colon carcinoma cells [1]: reduce the proliferation
- Kd [2]: 73 nM

SMILES: Cc1ccc(C(=O)Nc2cccc(C(F)(F)F)c2)cc1Nc1nc(-c2cccnc2)nc2c1cnn2C [NVP, NVP-BHG712]
- effect on proliferation of human colon carcinoma cells [1]: reduce the proliferation

SMILES: Cc1ccc(NC(=O)c2cccc(C(F)(F)F)c2)cc1Nc1nc(-c2cccnc2)nc2c1cnn2C [Compound 7]
- Kd [3]: 10 nM

SMILES: COc1cccc(NC(=O)c2ccc(C)c(Nc3nc(-c4cccnc4)nc4c3cnn4C)c2)c1 [Compound 14]
- Kd [3]: 2 nM
